What was measured:
[1] = test system: lethally irradiated BALB/c recipients of C57BL/6 (B6) donor bone marrow + T cells; assay: Steroid GVHD prophylaxis and therapy in allogeneic BMT recipients; type: in vivo, mouse; conditions: for GVHD therapy outcome / survival vs vehicle: 10 mg/kg/day day 3-28, 1.5×10^6 T cells
Experimental: FIG. 8 depicts steroid dose responses for GVHD prophylaxis in allogeneic BMT recipients. n=8 per group. BALB/c mice were lethally irradiated, given B6 BM+2 M T cells and steroids at the indicated doses from day 1-28. A low rapamycin dose (day 0-14, 3 times a week through day 27) was used as a comparator.
FIG. 9 depicts steroid based GVHD therapy in allogeneic BMT recipients. n=8 per group. BALB/c mice were lethally irradiated, given B6 BM+1.5 M T cells and steroids at 10 mg/kg/day day 3-28 or 4-28 as indicated.
FIG. 10 depicts steroid based GVHD therapy in allogeneic BMT recipients. n=15 (BM-Circles), 16 (Vehicle-Squares) and 25 (Prednisolone-Triangles). BALB/c mice were lethally irradiated, given B6 BM+1.5 M T cells and steroids at 10 mg/kg/day day 3-28.
To test whether gene modified (GR2-CRISPR/Cas9) or gene edited (GR2-CRISPR/Cas9/AAV-CaN mut.) Tregs have increased efficacy in vivo in the presence of glucocorticoid, how glucocorticoid (methyl-prednisolone) effects GVHD in preclinical mouse models was first determined. […] For these reasons, as well as the more logistically feasible and cost effective benefits of an allogeneic GVHD model, optimized steroid use in allogeneic recipients for GVHD prevention and therapy were first tested, and then applied to a xenogeneic model to enable testing of the human Treg product. Using lethally irradiated BALB/c recipients of C57BL/6 (B6) donor bone marrow+2×10^6 T cells, methyl-prednisolone at doses of 1, 3, and 6 mg/kg/dose were tested days 1-28 vs. rapamycin at 0.5 mg/kg/day, days 0-14 then 3×/week through day 27. The T cell dose was reduced to 1.5×10^6 and moved to GVHD therapy beginning on day 3 or day 4 (rather than day 1 prophylaxis) and compared no treatment to vehicle to prednisolone (n=8/group).
Delaying prednisolone treatment until day 4 was ineffective. Next, an experiment was performed to determine whether prednisolone at 10 mg/kg d3-28 was reproducible, and it was observed that this was the case (FIG. 10).

xeno-GVHD model = assay: Xenogeneic GVHD model (NSG mice given human PBMC); type: in vivo; conditions: 30 mg/kg, day 0-28
Experimental: FIGS. 11A-11D depicts the monitoring of GVHD in mice. Human PBMC (15×10^6) were injected into irradiated (50 rad) NSG mice±methylprednisolone (15 mg/kg), and signs of GVHD were monitored. FIG. 11A depicts a schematic illustration of the experiments indicating cohorts (n=7 mice each), dosing schedule, and analysis points. FIG. 11B depicts Kaplan-Meier survival curves for mice receiving PBMC only, or PBMC+prednisolone (p=0.104). FIG. 11C depicts disease progression monitored by weight loss (p=not significant). FIG. 11D depicts disease progression monitored by quantitating the number of PBMC-derived CD45+, CD4+, CD8+, and CD4+Foxp3+ T cells (p<0.03, <0.05, <0.03, and not significant, respectively). Animals were bled on day 19 for assessment.
FIGS. 12A-12D depicts the monitoring of GVHD in mice. […] FIG. 12B depicts Kaplan-Meier survival curves for mice receiving PBMC only, or PBMC+CNI (PBMC only vs. FK506 (36 mg/kg), p≤0.04). FIG. 12C depicts disease progression monitored by weight loss (p=not significant). FIG. 12D depicts disease progression monitored by quantitating the number of PBMC-derived CD45+, CD4+, CD8+, and CD4+Foxp3+ T cells (p<0.03, <0.05, <0.02, and not significant, respectively). Animals were bled on day 18 for assessment.
A follow up study has shown that xeno-GVHD pathology induced with 200 rad+1×10^7 human PBMC is more reproducible, and median survival is reduced from ˜25 days to ˜20 days.

exon 2 of NR3C1 = assay: Surveyor nuclease assay of NR3C1 gRNA candidates in human primary T-cells; type: cell-based; conditions: Cas9 with gRNA
Experimental: FIGS. 3A-3D depicts the process of gene editing of NR3C1 glucocorticoid receptor by CRISPR guide RNA and Cas9. FIG. 3A depicts a schematic illustrating the process of gene transfer. T cells or Tregs were harvested and activated with CD3/CD28 beads for 48 h (fresh) or 72 h (frozen). The Neon electroporation device was used to deliver Cas9 mRNA or protein with a gene specific guide RNA. FIG. 3B depicts a schematic illustrating NR3C1 gene targeting. Four sites in exon 2 were identified and tested. Four candidates were identified. The candidates were tested using the Surveyor method. FIG. 3C depicts a schematic illustrating the Surveyor assay. Gene modified (“mutant amplicon”) and unmodified (“wild type amplicon”) are hybridized resulting in homo- or heteroduplexes. Heteroduplexes caused by pairing of gene edited and wild type sequences are cleaved by the Surveyor enzyme resulting in predictable DNA fragments.
Using these parameters the use of CRISPR/Cas9 engineering of T-cells was pursued using the experimental schema as shown in FIG. 3A. Human primary T-cells were grown in the presence of IL-2 and activated with CD3/CD28 beads for 48-72 hours. The CRISPR/Cas9 reagents used a guide RNA transcript (Synthego) and recombinant Cas9 peptide (Aldevron) that were delivered using the Neon electroporation device (ThermoFisher). […]

NR3C1 = assay: Base editing of NR3C1 in Tregs (Sanger sequencing, EditR); type: cell-based, human; conditions: Tregs electroporated with base editor mRNA and guide RNA
Excerpt: Treg cells were base edited by electroporation of the base editor as protein or mRNA encoding said base editor, along with a guide RNA to target bases for editing with said base editor. The genomic DNA of the edited cells was then isolated and the target locus was PCR amplified. The PCR amplified locus was then sequenced by Sanger sequencing. Base conversion was observed by identifying multiple peaks at the target site. The PCR amplicon sequence data then underwent decomposition using the EDITR method to quantify base editing frequency (see, Kluesner et al. “EditR: A novel base editing quantification software using Sanger sequencing”.DOI: 10.1101/213496.2017). For FIGS. 19-22, and 24-27, the base edited sequences are marked by red open boxes.
FIG. 16 depicts a schematic showing base editing wherein the CRISPR deactivated or nicking DNA binding domain is a dCas9, and the base-editing domain is a cytidine deaminase. Base editors can be delivered as RNP complexes whereby the guide RNA may or may not be modified with phosphorothioate bonds to prevent intracellular degradation by endogenous RNAses. […] Further, the sequences at exon:intron boundaries defined as splice donors and acceptors that are required for intron excision and proper open reading frame orientation and expression were also targeted for conversion in order to disrupt splicing. […]

Tregs = assay: Survival of CRISPR/Cas9 NR3C1 knockout Tregs ± Dexamethasone; type: cell-based, human; conditions: Tregs electroporated with CRISPR/Cas9 RNP; Dexamethasone 30 μg/ml, 48 hours
Experimental: FIGS. 4A-4D depicts CRISPR/Cas9-mediated NR3C1 knockout in Tregs. Guide RNA candidates GR1 and GR2 were electroporated into activated Tregs as a ribonucleoprotein particle (RNP) with the Cas9 peptide. FIG. 4A depicts a schematic illustrating the culture process. FIG. 4B depicts a plot assessing the survival of Tregs after 72 h 30 μg/mL of Dexamethasone was added in the conditions as indicated. […] The NR3C1 locus was amplified from the pool of cells and indel analysis was performed by TIDE. The total gene modification rates were 35% and 44% for the pre- and post-Dexamethasone cells, respectively. The graph corresponds to the indel pattern observed in each population. […]
To determine whether the GR1 and GR2 guides were also capable of knocking out the NR3C1 locus in cultures of clinically-relevant Tregs, banked Tregs were thawed and re-stimulated with anti-CD3/28 beads in high dose IL-2 (300 U/ml). […] After 2 days, Treg cultures were harvested and were re-cultured±Dexamethasone (30 μg/ml) for an additional 48 hours (7 days total), at which time cultures were harvested, and relative survival was assessed by flow cytometry using a viability dye and counting beads. […] As such, the indel pattern using a sequence trace decomposition algorithm called TIDE (tracking of indels by decomposition) was assessed. Pre- and post-Dexamethasone exposure samples were analyzed (FIGS. 4C and 4D, respectively). […]

NR3C1 locus = assay: Indel analysis of the NR3C1 locus by TIDE; type: cell-based, human
Experimental: FIGS. 4A-4D depicts CRISPR/Cas9-mediated NR3C1 knockout in Tregs. Guide RNA candidates GR1 and GR2 were electroporated into activated Tregs as a ribonucleoprotein particle (RNP) with the Cas9 peptide. FIG. 4A depicts a schematic illustrating the culture process. FIG. 4B depicts a plot assessing the survival of Tregs after 72 h 30 μg/mL of Dexamethasone was added in the conditions as indicated. […] The NR3C1 locus was amplified from the pool of cells and indel analysis was performed by TIDE. The total gene modification rates were 35% and 44% for the pre- and post-Dexamethasone cells, respectively. The graph corresponds to the indel pattern observed in each population. Without being bound by any theory, it is predicted that out of frame indels (e.g., those non-divisible by three) will result in gene inactivation. Y-axis indicates the number of indels as a total percentage. X-axis indicates indels relative to unmodified (shown as bar in position 0). Deletions are shown to the left of the 0 position and each bar is between 1-10 bp away from the target site. Insertions of +1 bp are shown to the right of the 0 position. Asterisks show +1, −1, and −7 bp insertions/deletions and the frequency of these events increased with Dexamethasone exposure (comparing FIG. 4C with FIG. 4D), Dark black bars in FIGS. 4C-4D indicate editing events <0.5%.
To determine whether the GR1 and GR2 guides were also capable of knocking out the NR3C1 locus in cultures of clinically-relevant Tregs, banked Tregs were thawed and re-stimulated with anti-CD3/28 beads in high dose IL-2 (300 U/ml). On day 3, the Tregs were electroporated as above in the absence or presence of GR1 or GR2 GRISPR/Cas9 RNP and returned to culture in optimal expansion conditions. After 2 days, Treg cultures were harvested and were re-cultured±Dexamethasone (30 μg/ml) for an additional 48 hours (7 days total), at which time cultures were harvested, and relative survival was assessed by flow cytometry using a viability dye and counting beads. The dose of 30 μg/mL was identified by performing beta testing in Jurkat and primary T-cells that had undergone CRISPR/Cas9 gene modification and Dexamethasone dosing from 0-100 μg/mL. […] CRISPR/Cas9 gene repair by non-homologous endjoining results in insertions and deletions (indel) proximal to the gRNA binding site. As such, the indel pattern using a sequence trace decomposition algorithm called TIDE (tracking of indels by decomposition) was assessed. Pre- and post-Dexamethasone exposure samples were analyzed (FIGS. 4C and 4D, respectively). The frequency of out of frame indels that are predicted to result in gene inactivation in Tregs prior to Dexamethasone addition was ˜35%, which is similar to what was experimentally observed for peripheral blood T cells treated with GR2 GRISPR/Cas9 reagents (˜40%). Following culture in Dexamethasone, the frequency of indels increased to 44%. Without being bound by any theory, this indicates preferential survival of gene modified Tregs.

exon 2 of the NR3C1 gene = assay: HDR in Tregs, inside-out PCR and Sanger sequencing; type: cell-based, human; conditions: AAV-6 donor at various MOI
Experimental: FIGS. 5A-5C depicts homology directed repair (HDR) in Tregs. FIG. 5A depicts the gene targeting strategy. A calcineurin resistant gene co-expressed with GFP was designed such that it could be targeted to exon 2 of the NR3C1 gene resulting in a loss of 21 amino acids. The donor was encapsulated in AAV-6 particles and screening was performed using an inside/out PCR with primers (indicated by horizontal arrows) within the donor and outside of the donor at the target locus. FIG. 5B depicts gene targeting optimization. Activated Tregs were electroporated with NR3C1 Cas9 RNPs and the different indicated amounts of AAV-6 donor were added. Inside/out PCR results are shown with Sanger sequencing confirmation of the junction between the donor and the adjacent locus sequence shown in FIG. 5C.
To achieve dual drug (steroid and calcineurin inhibitor) resistance, Jurkat and primary T-cells were used to define the conditions for optimal homology directed repair (HDR). Cas9 mRNA and Cas9 RNP approaches were compared and assessed for their ability to facilitate HDR using a reporter HDR construct at the human AAVS1 locus. […] Flanking the calcineurin resistance gene were donor targeting arms homologous to the NR3C1 gene such that insertion disrupted exon 2 with concomitant deletion of 21 amino acids (FIG. 5A). […]

Compound | GVHD therapy outcome / survival vs vehicle [1] | GVHD therapy outcome / survival vs vehicle ([1]; listed as Prednisolone) | GVHD therapy outcome ([1]; treatment delayed until day 4) | average weight (xeno-GVHD model) | survival advantage (xeno-GVHD model) | median survival (xeno-GVHD model; controls 29 days) | human CD4+ and CD8+ T cells in the blood (xeno-GVHD model; day 19) | nuclease activity (Surveyor DNA fragmentation products) (exon 2 of NR3C1) | base editing outcome at the genetic locus (NR3C1) | survival in the presence of Dexamethasone (Tregs) | frequency of indels (NR3C1 locus; Tregs following culture in Dexamethasone) | frequency of out of frame indels (NR3C1 locus; Tregs prior to Dexamethasone addition) | frequency of out of frame indels (NR3C1 locus; peripheral blood T cells) | total gene modification rate (NR3C1 locus; post-Dexamethasone cells, FIG. 4D) | total gene modification rate (NR3C1 locus; pre-Dexamethasone cells, FIG. 4C) | HDR by inside-out PCR (exon 2 of the NR3C1 gene)
C[C@]12C=CC(=O)C=C1CC[C@@H]1[C@@H]2[C@@H](O)C[C@@]2(C)[C@H]1CC[C@]2(O)C(=O)CO [prednisolone] | improved outcome | significantly better than vehicle control | ineffective | not significantly different than controls | did not offer a survival advantage | 25 days | significantly more human CD4+ and CD8+ T cells |  |  |  |  |  |  |  |  | 
GR1: gRNA AACCAAAAGTCTTCGCTGCT (anti-sense), exon 2 of NR3C1 (guide AACCAAAAGUCUUCGCUGCU; RNA, backbone not given here; 5' and 3' phosphorothioate bonds) |  |  |  |  |  |  |  | exhibited the highest activity levels | premature TAA stop codon |  |  |  |  |  |  | 
GR2: gRNA TTGAGAAGCGACAGCCAGTG (anti-sense), exon 2 of NR3C1 (guide UUGAGAAGCGACAGCCAGUG; RNA, backbone not given here; 5' and 3' phosphorothioate bonds) |  |  |  |  |  |  |  | exhibited the highest activity levels | premature TAG stop codon | significantly increased survival | 44% | ~35% | ~40% | 44% | 35% | HDR was observed in Tregs at each MOI
